Experiment [1] deals with Acinetobacter baumannii ATCC17961. As to the kind of experiment: Antimicrobial susceptibility testing, 90% growth inhibitory concentration (IC90) determination. It counts as cell-based. The settings on record: Iso-Sensitest broth, OD 600 nm over 16 h, 35±2° C., read-out: ATCC 17961 IC90. The method, then: (§1) 90% Growth Inhibitory Concentration (IC90) Determination The in vitro antimicrobial activity of the compounds was determined according to the following procedure: The assay used a 10-points Iso-Sensitest broth medium to measure quantitatively the in vitro activity of the compounds against Acinetobacter baumannii ATCC17961 and Pseudomonas aeruginosa ATCC27853. Stock compounds in DMSO were serially twofold diluted (e.g. range from 50 to 0.097 μM final concentration) in 384 wells microtiter plates and inoculated with 49 μl the bacterial suspension in Iso-Sensitest medium to have a final cell concentration of ˜5×10^(5) CFU/ml in a final volume/well of 50 ul/well. Microtiter plates were incubated at 35±2° C. Bacterial cell growth was determined with the measurement of optical density at λ=600 nm each 20 minutes over a time course of 16 h. Growth inhibition was calculated during the logarithmic growth of the bacterial cells with determination of the concentration inhibiting 50% (IC50) and 90% (IC90) of the growth. Table 1 provides the 90% growth inhibitory concentrations (IC90) in micromoles per liter of the compounds of present invention obtained against the strain Acinetobacter baumannii ATCC17961.

For experiment [2], the system named is Pseudomonas aeruginosa ATCC27853. The description is as above. It counts as cell-based. Particulars: Iso-Sensitest broth, OD 600 nm over 16 h, 35±2° C., read-out: ATCC 27853 IC90. How it is done:
as §1, with “Table 2” for “Table 1”, “strain Pseudomonas aeruginosa ATCC27853.” for “strain Acinetobacter baumannii ATCC17961.”

Structures can show the parent of a compound that is named as a salt.

The term IC90 denotes the point of the concentration-response curve where the effect stands at 90%.

Turning to `CCc1cc(Nc2nccn3c(-c4ccc(-c5c(C)nn(CCOC)c5C)c(F)c4F)cnc23)ccc1C(=O)NCC1CC[N+](C)(CC2CNC2)CC1` (centres unmarked) [Example C7, N-[[1-(azetidin-3-ylmethyl)-1-methyl-piperidin-1-ium-4-yl]methyl]-4-[[3-[2,3-difluoro-4-[1-(2-methoxyethyl)-3,5-dimethyl-pyrazol-4-yl]phenyl]imidazo[1,2-a]pyrazin-8-yl]amino]-2-ethyl-benzamide; formic acid; formate], the concentration for an effect of 90% (IC90) in experiment [1] came out at 0.32 µM; in experiment [2] it was 0.39 µM.

Turning to `CCc1cc(Nc2nccn3c(-c4ccc(-c5cn(CCOC)nc5C)c(F)c4F)cnc23)ccc1C(=O)NCC1CC[N+](C)(C)CC1` [Example C1, 4-[[3-[2,3-Difluoro-4-[1-(2-methoxyethyl)-3-methyl-pyrazol-4-yl]phenyl]imidazo[1,2-a]pyrazin-8-yl]amino]-N-[(1,1-dimethylpiperidin-1-ium-4-yl)methyl]-2-ethyl-benzamide; formate], the results for the IC90 in experiment [1] and in experiment [2] were 0.27 µM and 1 µM, respectively.

On to `CCc1cc(Nc2nccn3c(-c4ccc(-c5c[nH]nc5C)c(F)c4F)cnc23)ccc1C(=O)NCC1CCN(CC2CNC2)CC1` [Example A1, N-[[1-(Azetidin-3-ylmethyl)-4-piperidyl]methyl]-4-[[3-[2,3-difluoro-4-(3-methyl-1H-pyrazol-4-yl)phenyl]imidazo[1,2-a]pyrazin-8-yl]amino]-2-ethyl-benzamide; formic acid], for which the IC90 came to 0.047 µM in experiment [1] and 0.16 µM in experiment [2].

For the molecule `CCc1cc(Nc2nccn3c(-c4ccc(-c5c[nH]nc5C(F)(F)F)c(F)c4F)cnc23)ccc1C(=O)NCC1CC[N+](C)(CC2CNC2)CC1` (centres unmarked) [Example B6, N-[[1-(azetidin-3-ylmethyl)-1-methyl-piperidin-1-ium-4-yl]methyl]-4-[[3-[2,3-difluoro-4-[3-(trifluoromethyl)-1H-pyrazol-4-yl]phenyl]imidazo[1,2-a]pyrazin-8-yl]amino]-2-ethyl-benzamide; formic acid; formate], the IC90 in experiment [1] turned out to be 0.16 µM; in experiment [2], 0.25 µM.

For the molecule `CCc1cc(Nc2nccn3c(-c4ccc(-c5c[nH]nc5C)c(F)c4F)cnc23)ccc1C(=O)NCC1CC[N+](C)(CC(=O)O)CC1` (centres unmarked) [Example A4, 2-[4-[[[4-[[3-[2,3-difluoro-4-(3-methyl-1H-pyrazol-4-yl)phenyl]imidazo[1,2-a]pyrazin-8-yl]amino]-2-ethyl-benzoyl]amino]methyl]-1-methyl-piperidin-1-ium-1-yl]acetic acid; formate], the 90% effect concentration (IC90) turned out to be 0.31 µM in experiment [1] and 1.2 µM in experiment [2].

In the case of `CCc1cc(Nc2nccn3c(-c4ccc(-c5c[nH]nc5C)c(F)c4F)cnc23)ccc1C(=O)NCC1CCN(CC(=O)O)CC1` [Example A3, 2-[4-[[[4-[[3-[2,3-difluoro-4-(3-methyl-1H-pyrazol-4-yl)phenyl]imidazo[1,2-a]pyrazin-8-yl]amino]-2-ethyl-benzoyl]amino]methyl]-1-piperidyl]acetic acid], the values for the IC90 in experiment [1] and in experiment [2] were 0.34 µM and 1.8 µM, respectively.

With `CCc1cc(Nc2nccn3c(-c4ccc(-c5c[nH]nc5C)c(F)c4F)cnc23)ccc1C(=O)NCC1CC[N+](C)(CC2CNC2)CC1` (centres unmarked) [Example A2, N-[[1-(Azetidin-3-ylmethyl)-1-methyl-piperidin-1-ium-4-yl]methyl]-4-[[3-[2,3-difluoro-4-(3-methyl-1H-pyrazol-4-yl)phenyl]imidazo[1,2-a]pyrazin-8-yl]amino]-2-ethyl-benzamide; formic acid; formate], the IC90 in experiment [1] came out at 0.05 µM; in experiment [2], 0.098 µM.

As for `CCc1cc(Nc2nccn3c(-c4ccc(-c5c(C)nn(CCOC)c5C)c(F)c4F)cnc23)ccc1C(=O)NCC1CC[N+](C)(CC(N)=O)CC1` (centres unmarked) [Example C5, N-[[1-(2-amino-2-oxo-ethyl)-1-methyl-piperidin-1-ium-4-yl]methyl]-4-[[3-[2,3-difluoro-4-[1-(2-methoxyethyl)-3,5-dimethyl-pyrazol-4-yl]phenyl]imidazo[1,2-a]pyrazin-8-yl]amino]-2-ethyl-benzamide; formate], the IC90 in experiment [1] was determined as 0.68 µM; in experiment [2], 1.9 µM.

As for `CCc1cc(Nc2nccn3c(-c4ccc(-c5cn(CCOC)nc5C)c(F)c4F)cnc23)ccc1C(=O)NCC1CC[N+](C)(CC2CNC2)CC1` (centres unmarked) [Example C4, N-[[1-(azetidin-3-ylmethyl)-1-methyl-piperidin-1-ium-4-yl]methyl]-4-[[3-[2,3-difluoro-4-[1-(2-methoxyethyl)-3-methyl-pyrazol-4-yl]phenyl]imidazo[1,2-a]pyrazin-8-yl]amino]-2-ethyl-benzamide; formic acid; formate], the IC90 in experiment [1] amounted to 0.46 µM; in experiment [2], 0.41 µM.

With `CCc1cc(Nc2nccn3c(-c4ccc(-c5c[nH]nc5C(F)(F)F)c(F)c4F)cnc23)ccc1C(=O)NCC1CCN(CC2CNC2)CC1` [Example A12, N-[[1-(azetidin-3-ylmethyl)-4-piperidyl]methyl]-4-[[3-[2,3-difluoro-4-[3-(trifluoromethyl)-1H-pyrazol-4-yl]phenyl]imidazo[1,2-a]pyrazin-8-yl]amino]-2-ethyl-benzamide; formic acid], the IC90 in experiment [1] is 0.28 µM; in experiment [2] it was 0.43 µM.

As for `CCc1cc(Nc2nccn3c(-c4ccc(-c5c[nH]nc5C)c(F)c4F)cnc23)ccc1C(=O)NCC1CC[N+](CC(=O)O)(CC2CNC2)CC1` (centres unmarked) [Example A5, 2-[1-(azetidin-3-ylmethyl)-4-[[[4-[[3-[2,3-difluoro-4-(3-methyl-1H-pyrazol-4-yl)phenyl]imidazo[1,2-a]pyrazin-8-yl]amino]-2-ethyl-benzoyl]amino]methyl]piperidin-1-ium-1-yl]acetic acid; formic acid; formate], the IC90 in experiment [1] worked out at 0.15 µM; in experiment [2], 0.24 µM.

For `CCc1cc(Nc2nccn3c(-c4ccc(-c5c(C)nn(CCOC)c5C)c(F)c4F)cnc23)ccc1C(=O)NCC1CC[N+](C)(CCO)CC1` (centres unmarked) [Example C6, 4-[[3-[2,3-difluoro-4-[1-(2-methoxyethyl)-3,5-dimethyl-pyrazol-4-yl]phenyl]imidazo[1,2-a]pyrazin-8-yl]amino]-2-ethyl-N-[[1-(2-hydroxyethyl)-1-methyl-piperidin-1-ium-4-yl]methyl]benzamide; formate], the IC90 in experiment [1] worked out at 0.44 µM; in experiment [2], 1.2 µM.

In the case of `CCc1cc(Nc2nccn3c(-c4ccc(-c5c[nH]nc5C)cc4)cnc23)ccc1C(=O)NCC1CC[N+](C)(CC2CNC2)CC1` (centres unmarked) [Example B5, N-[[1-(azetidin-3-ylmethyl)-1-methyl-piperidin-1-ium-4-yl]methyl]-2-ethyl-4-[[3-[4-(3-methyl-1H-pyrazol-4-yl)phenyl]imidazo[1,2-a]pyrazin-8-yl]amino]benzamide; formic acid; formate], the IC90 in experiment [1] turned out to be 0.1 µM; in experiment [2], 0.098 µM.

Consider `CCc1cc(Nc2nccn3c(-c4ccc(-c5c[nH]nc5C)nc4F)cnc23)ccc1C(=O)NCC1CC[N+](C)(CC2CNC2)CC1` (centres unmarked) [Example B1, N-[[1-(Azetidin-3-ylmethyl)-1-methyl-piperidin-1-ium-4-yl]methyl]-2-ethyl-4-[[3-[2-fluoro-6-(3-methyl-1H-pyrazol-4-yl)-3-pyridyl]imidazo[1,2-a]pyrazin-8-yl]amino]benzamide; formic acid; formate], for which the concentration for an effect of 90% (IC90) in experiment [1] amounted to 1.1 µM; in experiment [2], 0.12 µM.

Consider `CCc1cc(Nc2nccn3c(-c4ccc(-c5c(C)n[nH]c5C)nc4F)cnc23)ccc1C(=O)NCC1CC[N+](C)(CC2CNC2)CC1` (centres unmarked) [Example B4, N-[[1-(azetidin-3-ylmethyl)-1-methyl-piperidin-1-ium-4-yl]methyl]-4-[[3-[6-(3,5-dimethyl-1H-pyrazol-4-yl)-2-fluoro-3-pyridyl]imidazo[1,2-a]pyrazin-8-yl]amino]-2-ethyl-benzamide; formic acid; formate], for which the values for the IC90 in experiment [1] and in experiment [2] were 0.43 µM and 0.098 µM, respectively.

On to `CCc1cc(Nc2nccn3c(-c4ccc(-c5cn(CCOC)nc5C)c(F)c4F)cnc23)ccc1C(=O)NCC1CC[N+](C)(CCO)CC1` (centres unmarked) [Example C3, 4-[[3-[2,3-difluoro-4-[1-(2-methoxyethyl)-3-methyl-pyrazol-4-yl]phenyl]imidazo[1,2-a]pyrazin-8-yl]amino]-2-ethyl-N-[[1-(2-hydroxyethyl)-1-methyl-piperidin-1-ium-4-yl]methyl]benzamide; formate], for which the IC90 in experiment [1] was determined as 0.43 µM; in experiment [2], 1.6 µM.

For the origin of these results see patent US12617798B2, “Imidazopyrazne derivatives” (Hoffmann-La Roche Inc., priority 2020, dated 2026).
